Results on two molecules are retold here after PMC7809625 (Cell Reports, 2021).

For orientation: Ki means the dissociation constant of the complex between target and ligand, obtained from inhibition or displacement. Higher therefore signals lower affinity.

The target in experiment [1] is T1, VGLUT1 (Rattus norvegicus, UniProt Q62634).
T1 sequence (Q62634 1-560): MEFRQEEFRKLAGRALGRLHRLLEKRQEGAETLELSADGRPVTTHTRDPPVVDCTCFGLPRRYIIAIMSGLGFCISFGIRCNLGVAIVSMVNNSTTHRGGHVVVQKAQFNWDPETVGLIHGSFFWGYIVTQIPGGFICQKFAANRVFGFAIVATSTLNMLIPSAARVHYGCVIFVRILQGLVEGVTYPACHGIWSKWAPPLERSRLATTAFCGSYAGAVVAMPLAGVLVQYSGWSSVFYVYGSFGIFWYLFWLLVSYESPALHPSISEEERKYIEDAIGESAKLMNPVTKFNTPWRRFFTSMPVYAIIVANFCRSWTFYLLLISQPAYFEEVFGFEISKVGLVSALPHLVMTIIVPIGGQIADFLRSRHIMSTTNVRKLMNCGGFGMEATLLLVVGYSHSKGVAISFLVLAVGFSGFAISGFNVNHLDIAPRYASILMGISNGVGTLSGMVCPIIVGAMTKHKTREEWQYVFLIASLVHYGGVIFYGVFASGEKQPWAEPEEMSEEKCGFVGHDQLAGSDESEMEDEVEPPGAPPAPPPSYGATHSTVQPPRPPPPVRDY
The experiment in a line: inhibition of Pi uptake in COS7-VGLUT1 cells at […]. In kind it is cell-based.

For experiment [2], the target named is T1, VGLUT1. The experiment in a line: inhibition of Na+-dependent Pi uptake in COS7-VGLUT1 cells. In kind it is cell-based.

With `O=C1OC2(c3cc(I)c(O)c(I)c3Oc3c2cc(I)c(O)c3I)c2c(Cl)c(Cl)c(Cl)c(Cl)c21` [RB, Rose bengal], in experiment [1], the “inhibition of Pi uptake in COS7-VGLUT1 cells at 10 uM” value was “The absence of additive effect of NB9 and RB emphasizes the specificity of both inhibitors toward VGLUT1”.

As to `N[C@@H](CCC(=O)O)C(=O)O` [glutamate], the inhibitory constant (Ki) in experiment [2] amounted to 1370 µM.
